The data set has as its system CCRIS mutagenicity, Ames/micronucleus/aberration tests. The experiment in a line: CCRIS mutagenicity studies.
Where [1] appears, read: Test System: AMES SALMONELLA TYPHIMURIUM, Strain/Indicator: TA100, Metabolic Activation: NONE, Method: PREINCUBATION
The mark [2] stands for this setting: Test System: AMES SALMONELLA TYPHIMURIUM, Strain/Indicator: TA1535, Metabolic Activation: NONE, Method: PREINCUBATION
The mark [3] stands for this setting: Test System: AMES SALMONELLA TYPHIMURIUM, Strain/Indicator: TA1537, Metabolic Activation: NONE, Method: PREINCUBATION

The results in this text go back to PubChem BioAssay AID1259407 (Chemical Carcinogenesis Research Information System (CCRIS), 2018).

Active and inactive are the calls of the source. How the calls were made is not given here.

As for `O=[N+]([O-])CCO`, the mutagenic call was “inactive; negative” (Test System: AMES SALMONELLA TYPHIMURIUM, Strain/Indicator: TA97, Metabolic Activation: HAMSTER, LIVER, S-9, AROCLOR 1254 (5 OR 30%), Method: PREINCUBATION); “inactive; negative” (Test System: AMES SALMONELLA TYPHIMURIUM, Strain/Indicator: TA97, Metabolic Activation: HAMSTER, LIVER, S-9, AROCLOR 1254 (10%), Method: PREINCUBATION); “inactive; negative” (Test System: AMES SALMONELLA TYPHIMURIUM, Strain/Indicator: TA97, Metabolic Activation: NONE, Method: PREINCUBATION); “inactive; negative” (Test System: AMES SALMONELLA TYPHIMURIUM, Strain/Indicator: TA97, Metabolic Activation: RAT, LIVER, S-9, AROCLOR 1254 (5 OR 30%), Method: PREINCUBATION); “inactive; negative” (Test System: AMES SALMONELLA TYPHIMURIUM, Strain/Indicator: TA97, Metabolic Activation: RAT, LIVER, S-9, AROCLOR 1254 (10%), Method: PREINCUBATION); “inactive; negative” (Test System: AMES SALMONELLA TYPHIMURIUM, Strain/Indicator: TA98, Metabolic Activation: HAMSTER, LIVER, S-9, AROCLOR 1254 (10%), Method: PREINCUBATION). Besides, the mutagenic call is, setting by setting: (Test System: AMES SALMONELLA TYPHIMURIUM, Strain/Indicator: TA98, Metabolic Activation: RAT, LIVER, S-9, AROCLOR 1254 (10%), Method: PREINCUBATION) “inactive; negative”; (Test System: AMES SALMONELLA TYPHIMURIUM, Strain/Indicator: TA100, Metabolic Activation: HAMSTER, LIVER, S-9, AROCLOR 1254 (10%), Method: PREINCUBATION) “inactive; negative”; (Test System: AMES SALMONELLA TYPHIMURIUM, Strain/Indicator: TA100, Metabolic Activation: HAMSTER, LIVER, S-9, AROCLOR 1254 (30%), Method: PREINCUBATION) “inactive; negative”; under setting [1], “inactive; negative”; (Test System: AMES SALMONELLA TYPHIMURIUM, Strain/Indicator: TA100, Metabolic Activation: RAT, LIVER, S-9, AROCLOR 1254 (10%), Method: PREINCUBATION) “inactive; negative”; (Test System: AMES SALMONELLA TYPHIMURIUM, Strain/Indicator: TA100, Metabolic Activation: RAT, LIVER, S-9, AROCLOR 1254 (30%), Method: PREINCUBATION) “inactive; negative”. Also, the mutagenic call reads like this: (Test System: AMES SALMONELLA TYPHIMURIUM, Strain/Indicator: TA1535, Metabolic Activation: HAMSTER, LIVER, S-9, AROCLOR 1254 (10%), Method: PREINCUBATION) “inactive; negative”; (Test System: AMES SALMONELLA TYPHIMURIUM, Strain/Indicator: TA1535, Metabolic Activation: HAMSTER, LIVER, S-9, AROCLOR 1254 (30%), Method: PREINCUBATION) “inactive; negative”; under setting [2], “inactive; negative”; (Test System: AMES SALMONELLA TYPHIMURIUM, Strain/Indicator: TA1535, Metabolic Activation: RAT, LIVER, S-9, AROCLOR 1254 (10%), Method: PREINCUBATION) “inactive; negative”; (Test System: AMES SALMONELLA TYPHIMURIUM, Strain/Indicator: TA1535, Metabolic Activation: RAT, LIVER, S-9, AROCLOR 1254 (30%), Method: PREINCUBATION) “inactive; negative”; (Test System: AMES SALMONELLA TYPHIMURIUM, Strain/Indicator: TA1537, Metabolic Activation: HAMSTER, LIVER, S-9, AROCLOR 1254 (10%), Method: PREINCUBATION) “inactive; negative”. Further, the mutagenic call under setting [3] is “inactive; negative”; the mutagenic call (Test System: AMES SALMONELLA TYPHIMURIUM, Strain/Indicator: TA1537, Metabolic Activation: RAT, LIVER, S-9, AROCLOR 1254 (10%), Method: PREINCUBATION) is “inactive; negative”; the mutagenic call (Test System: AMES SALMONELLA TYPHIMURIUM, Strain/Indicator: TA1538, Metabolic Activation: HAMSTER, LIVER, S-9, AROCLOR 1254 (30%), Method: PREINCUBATION) is “active; positive”; the mutagenic call (Test System: AMES SALMONELLA TYPHIMURIUM, Strain/Indicator: TA1538, Metabolic Activation: NONE, Method: PREINCUBATION) was “active; positive”; the mutagenic call (Test System: AMES SALMONELLA TYPHIMURIUM, Strain/Indicator: TA1538, Metabolic Activation: RAT, LIVER, S-9, AROCLOR 1254 (30%), Method: PREINCUBATION) is “active; positive”.

As to `CCCCOC(=O)c1ccc(N)cc1`, the mutagenic call is, setting by setting: (Test System: AMES SALMONELLA TYPHIMURIUM, Strain/Indicator: TA98, Metabolic Activation: HAMSTER, LIVER, S-9, AROCLOR 1254, Method: PREINCUBATION) “inactive; negative”; (Test System: AMES SALMONELLA TYPHIMURIUM, Strain/Indicator: TA98, Metabolic Activation: NONE, Method: PREINCUBATION) “inactive; negative”; (Test System: AMES SALMONELLA TYPHIMURIUM, Strain/Indicator: TA98, Metabolic Activation: RAT, LIVER, S-9, AROCLOR 1254, Method: PREINCUBATION) “inactive; negative”; (Test System: AMES SALMONELLA TYPHIMURIUM, Strain/Indicator: TA100, Metabolic Activation: HAMSTER, LIVER, S-9, AROCLOR 1254, Method: PREINCUBATION) “inactive; negative”; under setting [1], “inactive; negative”; (Test System: AMES SALMONELLA TYPHIMURIUM, Strain/Indicator: TA100, Metabolic Activation: RAT, LIVER, S-9, AROCLOR 1254, Method: PREINCUBATION) “inactive; negative”. Besides, the mutagenic call is “inactive; negative” (Test System: AMES SALMONELLA TYPHIMURIUM, Strain/Indicator: TA1535, Metabolic Activation: HAMSTER, LIVER, S-9, AROCLOR 1254, Method: PREINCUBATION); “inactive; negative” under setting [2]; “inactive; negative” (Test System: AMES SALMONELLA TYPHIMURIUM, Strain/Indicator: TA1535, Metabolic Activation: RAT, LIVER, S-9, AROCLOR 1254, Method: PREINCUBATION); “inactive; negative” (Test System: AMES SALMONELLA TYPHIMURIUM, Strain/Indicator: TA1537, Metabolic Activation: HAMSTER, LIVER, S-9, AROCLOR 1254, Method: PREINCUBATION); “inactive; negative” under setting [3]; “inactive; negative” (Test System: AMES SALMONELLA TYPHIMURIUM, Strain/Indicator: TA1537, Metabolic Activation: RAT, LIVER, S-9, AROCLOR 1254, Method: PREINCUBATION).

As for `CC(=O)[O-].CC(=O)[O-].O.O.O.O.[Co+2]`, the mutagenic call is “active; positive (structural changes)” (End Point: In vitro chromosomal aberrations, Test System: Chinese hamster lung (CHL/IU) cells, Metabolic Activation: None); “active; positive (structural changes)” (End Point: In vitro chromosomal aberrations, Test System: Chinese hamster lung (CHL/IU) cells, Metabolic Activation: Rat, Liver, S9, Phenobarbital and 5,6-benzoflavone); “inactive; negative” (Test System: Ames Salmonella typhimurium, Strain/Indicator: TA98, Metabolic Activation: Rat, Liver, S9, Sodium phenobarbital and 5,6-benzoflavone (10%), Method: Preincubation); “inactive; negative” (Test System: Ames Salmonella typhimurium, Strain/Indicator: TA100, Metabolic Activation: Rat, Liver, S9, Sodium phenobarbital and 5,6-benzoflavone (10%), Method: Preincubation); “inactive; negative” (Test System: Ames Salmonella typhimurium, Strain/Indicator: TA1535, Metabolic Activation: None, Method: Preincubation); “inactive; negative” (Test System: Ames Salmonella typhimurium, Strain/Indicator: TA1535, Metabolic Activation: Rat, Liver, S9, Sodium phenobarbital and 5,6-benzoflavone (10%), Method: Preincubation). The mutagenic call by setting is: (Test System: Ames Salmonella typhimurium, Strain/Indicator: TA1537, Metabolic Activation: Rat, Liver, S9, Sodium phenobarbital and 5,6-benzoflavone (10%), Method: Preincubation) “inactive; negative”; (Test System: E. coli, Strain/Indicator: WP2uvrA/pKM101, Metabolic Activation: None, Method: Preincubation) “active; positive”; (Test System: E. coli, Strain/Indicator: WP2uvrA/pKM101, Metabolic Activation: Rat, Liver, S9, Sodium phenobarbital and 5,6-benzoflavone (10%), Method: Preincubation) “inactive; negative”.
